In patent US20240150315A1, “BETA-2 ADRENORECEPTOR MODULATORS AND METHODS OF USING SAME” (University of Maryland, Baltimore, priority 2022, published 2024):
“Also recorded” adds a separate entry of the source.

Experiments:
[1] = tested on: human precision-cut lung slices; assay: bronchodilation of methacholine-contracted human precision-cut lung slices; settings: for effect on ISO-induced increase in airway lumen area (bronchodilation): 100 nM compound, methacholine 1 μM
Method: (§1) To further examine the effect of PAMs and NAMs on β-agonists-mediated regulation of bronchorelaxation in a physiologically-relevant model, human and murine precision-cut lung slices were used. […] Lung slices were treated with increasing concentrations of ISO plus either vehicle or 100 nM of compounds 1001, 1002, and 1003, and a change in airway lumen area was determined.
(§2) FVB mice expressing human β2AR in smooth muscle were used in this study. The protocol for animal experiments is approved by the Institutional Animal Care and Use Committee. Murine lungs were perfused with 4% low melting agarose, allowed to solidify at 4° C. for 1 h. For human airways, a small lobe was inflated with 2% low-melting-point agarose and cores of 8 mm in diameter were made. Both human and murine lungs were then sliced (˜250 μm thick) using an oscillating tissue slicer (OTS-5000, FHC Inc). Lung slices cultured for 48 h were treated with methacholine (MCh, 1 μM), and images of the airways were obtained before and 10 min after MCh stimulation using EVOS FL Auto (Life technologies, Waltham, MA) microscope. The lung slices were treated with ISO (1 nM-10 μM) with vehicle or AMs and images of the airways were captured at 10 min intervals for a total of 50 min. Images of airways were used to calculate the area of airways using Image J software (NIH). Data from lung slice experiments were plotted as a percentage of methacholine-induced decrease in airway area compared to baseline area.

β2AR [2] = assay: cell surface ELISA of β2AR expression (receptor internalization) in HEK293 cells; assay type: cell-based, human; settings: 15 min; for effect on ISO-induced loss of cell surface expression of wild-type or mutant β2AR: AMs 100 nM with ISO 100 nM
Method: ISO induced receptor internalization was assessed via cell surface ELISA as previously described. Briefly, HEK-293 cells expressing β2AR were plated on 24-well plates. Cells were treated with 100 nM ISO with vehicle or 100 nM AMs for 15 minutes. Post treatment, cells were washed and fixed with 10% formalin-buffered saline for 10 minutes on ice, washed twice, and further processed using horseradish peroxidase-conjugated chicken polyclonal anti-HA antibody (Abcam). Cells were washed and incubated with 3,3′,5,5′-tetramethylbenzidine substrate and transferred to a 96-well plate containing sulfuric acid to stop the colorimetric reaction. FlexStation3 was used to measure absorbance at 450 nm. All values were normalized to basal value (no ISO/AMs) of wild-type receptor.

[3] = tested on: murine precision-cut lung slices; assay: bronchodilation of methacholine-contracted murine precision-cut lung slices; design: species or system FVB mice expressing human β2AR in smooth muscle; settings: for effect on ISO-induced increase in airway lumen area (bronchodilation): 100 nM compound, methacholine 1 μM
Method: as §1, §2

human ASM cells = assay: collagen gel contraction assay with human ASM cells, histamine-induced contraction; assay type: cell-based; settings: 10 μM histamine; for effect on ISO-mediated inhibition of histamine-induced contraction of human ASM cells: AMs 100 nM, 10 min pretreatment
Text: β-agonists are the drug of choice for management of acute bronchoconstriction in asthmatics, acting on the target ASM cells. The Gs-cAMP-protein kinase A signaling axis effected by β-agonists inhibits contraction of ASM cells via multiple mechanisms. Therefore, it was examined whether the modulation of this signaling pathway by the discovered PAM/NAMs translated into functional differences in β2AR control of ASM contraction. In a standard gel-contraction assay, the collagen gels containing human ASM cells were incubated with different concentrations of ISO with vehicle or 100 nM AMs for 10 min, followed by stimulation with 10 μM histamine. The gel images were obtained before and after treatment with different agonists using an EVOS microscope, and a change in the gel area was calculated. Treatment with 10 μM histamine decreased the area of the gels, consistent with contraction of ASM cells. Pretreatment of gels with ISO inhibited the histamine-induced decrease in gel area (FIG. 14A).
100 μl of ASM cell suspension (5×10^5 cells/ml) containing type-I rat tail collagen (1.5 mg/ml) in F-12 medium was seeded onto a 96-well plate. After 24 h, collagen gels were loosened from the plate. The contraction was initiated by adding histamine (10 μM), with or without pretreatment with increasing concentration of ISO, with vehicle or AMs for 10 min prior to histamine. Images were obtained using an EVOS live tissue microscope before and at 10 min intervals for 40 min after the addition of histamine. Gel area was obtained for each of the mages using NIH ImageJ software. Data were expressed as percentage gel contraction and calculated using the following equation. [(T0 gel area−T10 gel area)/T0 gel area×100%].

human wild type β2AR = molecular target: T1, human wild type β2AR (Homo sapiens, UniProt P07550); assay: ISO-induced cAMP accumulation (ELISA) in HEK293 cells overexpressing human wild type β2AR; assay type: cell-based; settings: AMs 100 nM, different concentrations of ISO
T1 construct: host or cells: HEK293
T1 sequence (P07550 whole entry): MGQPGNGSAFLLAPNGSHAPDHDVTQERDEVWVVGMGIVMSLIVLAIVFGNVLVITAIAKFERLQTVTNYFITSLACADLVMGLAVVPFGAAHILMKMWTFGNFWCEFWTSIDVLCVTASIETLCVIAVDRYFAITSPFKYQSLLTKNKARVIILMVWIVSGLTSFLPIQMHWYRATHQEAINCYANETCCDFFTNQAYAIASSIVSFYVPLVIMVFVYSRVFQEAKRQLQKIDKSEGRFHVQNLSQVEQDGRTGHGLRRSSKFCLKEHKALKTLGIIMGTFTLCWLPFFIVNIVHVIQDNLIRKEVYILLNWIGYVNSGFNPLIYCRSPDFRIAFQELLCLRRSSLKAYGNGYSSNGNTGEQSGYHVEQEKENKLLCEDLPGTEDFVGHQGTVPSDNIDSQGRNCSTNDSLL
Text: Activation of β2AR by orthosteric ligands leads to activation of Gαs subunit, which in turn activates AC to hydrolyze ATP to produce cAMP. To determine the biological activity of the AMs of the β2AR, HEK293 cells overexpressing human wild type β2AR were stimulated with different concentrations of test compounds and evaluated for cAMP production using a cAMP ELISA. […] These compounds were used in subsequent studies.
HEK293 cell lines were obtained from the American Type Culture Collection (ATCC) and maintained in Dulbecco's modified Eagle's medium (DMEM) as described previously.
The human β2AR cDNA containing 3-HA tag at N-terminus subcloned into a pcDNA3.1 was obtained from www.cdna.org. […] Mutations were confirmed by DNA sequencing. HEK293 cells were transfected with cDNA expressing (wild type or mutant; see below) human β2AR using Lipofectamine 3000 (Invitrogen, Waltham, MA) and used for studies within 36-48 h, or were maintained in media containing G418 at 500 μg/ml concentration.
(§3) Cells were grown to full confluency in 24-well plates, serum-starved for 24 h, and then incubated with 1 mM IBMX for 10 min. Cells were then incubated with ISO (1 nM to 10 μM) or β2AR modulators alone or concomitantly for 10 min and cAMP levels were measured by ELISA (Life Technologies, Waltham, MA) as described previously.

[4] = tested on: R131K, R131A, Y219F, Y219S, Y219A, F282Y, F282W, and F282A mutant β2ARs; assay: ISO-induced cAMP generation in HEK293 cells expressing mutant β2AR; assay type: cell-based, human; settings: AMs 100 nM, compared with wild-type β2AR
Method: To validate the identity of the computationally identified allosteric site, β2AR containing R131K, R131A, Y219F, Y219S, Y219A, F282Y, F282W, and F282A mutations was generated (FIG. 11A). Wild-type and mutant β2AR were expressed in HEK293 cells, and ISO-induced cAMP generation was measured in the presence or absence of the PAM compound 1001, or NAM compounds 1002 and 1003 (FIGS. 11B-E). The compounds were also tested at different concentrations of ISO in the cells expressing mutant β2AR (FIGS. 12A-D). The cAMP response was enhanced in cells expressing R131A and diminished in F282A mutant β2AR compared to cells expressing wild-type β2AR. […] Further, as expected, compound 1001 enhanced ISO-induced cAMP generation in cells expressing wild-type β2AR, and this effect was abolished in cells expressing mutant β2AR (FIGS. 11C-E, FIGS. 12B-D). Furthermore, NAM compounds 1002 and 1003 inhibited ISO-induced cAMP generation in wild-type β2AR expressing cells, and this inhibition was attenuated in cells expressing R131K, R131A, Y219F, Y219S, Y219A, F282Y, F282W, and F282A mutant β2ARs (FIGS. 11C-E, FIGS. 12B-D).
The human β2AR cDNA containing 3-HA tag at N-terminus subcloned into a pcDNA3.1 was obtained from www.cdna.org. Binding site residues PHE(F)282, TYR(Y)219, and ARG(R)131 were mutated to different amino acids using the QuikChange 11 XL Site-Directed Mutagenesis Kit (Agilent, Santa Clara, CA) per manufacturer's protocol. Mutations were confirmed by DNA sequencing. HEK293 cells were transfected with cDNA expressing (wild type or mutant; see below) human β2AR using Lipofectamine 3000 (Invitrogen, Waltham, MA) and used for studies within 36-48 h, or were maintained in media containing G418 at 500 μg/ml concentration. […]
as §3

mice = assay: in vivo bronchodilation after MCh-induced bronchoconstriction by flexiVent; settings: aerosol ISO with compound vs vehicle after MCh
Method: Compound 1001 augments isoproterenol (ISO)-induced bronchodilation in mice. Change in methacholine (MCh)-induced bronchoconstriction (lung resistance) upon aerosol treatment of mice with MCh followed by aerosol treatment of mice with ISO with vehicle or compound 1001 using flexiVent (Scireq) method was assessed.
In vivo lung function measurements. Lung mechanics are studied using flexiVent (Scireq) method. Briefly, anesthetized, intubated mice are ventilated with a tidal volume of 250 μl at 150 breaths/min. Mouse airways are exposed to increasing doses of methacholine (MCh; 1.56-50 mg/ml) using an in-line ultrasonic nebulizer. Following MCh-induced bronchoconstriction, mice are aerosolized with increasing concentrations of β-agonists (0.1-20 mg/ml)+AMs (100 nM). Airway resistance (Rn), tissue damping (G), and elastance (H) data (normalized to body weight) at individual doses of agonists are determined using the flexiWare software.

β2AR [5] = molecular target: T2, β2AR (Homo sapiens, UniProt P07550); assay: β-arrestin2 recruitment to the β2AR, BRET assay in HEK293 cells; assay type: cell-based; settings: AMs 100 nM, increasing concentrations of ISO
T2 construct: expressed in transfected cells; host or cells: HEK293
T2 sequence (P07550 whole entry): as above
Method: In addition to the canonical Gs signaling, the “balanced” b-agonists induce β-arrestin recruitment to the β2AR resulting in β2AR desensitization and activation of non-canonical signaling such as ERK1/2 signaling. […] Furthermore, the effect of AMs on ISO-induced phosphorylation of ERK1/2 was tested.
β-agonist-induced recruitment of β-arrestin to the β2AR was assessed by BRET assay as described previously. HEK293 cells were transfected with pcDNA-β-arrestin2-GFP10 and pcDNA3-β2AR-RlucII and after 48 h the cells were treated with increasing concentration of ISO and vehicle or 100 nM PAMs or NAMs followed by the addition of Coelenterazine 400a for 20 mins. Change in BRET was measured using a Tecan Infinite F500 microplate reader. BRET ratios were calculated by dividing the intensity of light emitted by the GFP10 acceptor by the total light emitted by the RLucII donor.

Row | effect on ISO-induced β-arrestin2 recruitment to the β2AR (change in BRET) (β2AR [5]) | SMILES | airway lumen area (bronchodilation) ([1]; ISO alone) | cell surface expression of the β2AR (β2AR [2]; ISO 100 nM alone) | airway lumen area (bronchodilation) ([3]; ISO alone) | histamine-induced decrease in gel area (human ASM cells; ISO pretreatment alone) | effect on ISO-induced cAMP accumulation (human wild type β2AR) | effect on ISO-induced increase in airway lumen area (bronchodilation) [1] | effect of the modulator on ISO-induced cAMP generation in cells expressing mutant β2AR [4] | effect on ISO-induced loss of cell surface expression of wild-type or mutant β2AR (β2AR [2]) | effect on ISO-induced increase in airway lumen area (bronchodilation) [3] | effect on ISO-induced bronchodilation (lung resistance) (mice) | effect on ISO-mediated inhibition of histamine-induced contraction of human ASM cells (human ASM cells)
1 | – | CC(C)NCC(O)c1ccc(O)c(O)c1 (centres unmarked) [ISO, isoproterenol, reference compound] | dose-dependent increase | loss of cell surface expression | dose-dependent increase | inhibited | – | – | – | – | – | – | –
2 | did not alter | OCCC1CN(Cc2ccccn2)CCN1C1CCCC1 (centres unmarked) [compound 1001] | – | – | – | – | most effective PAM; also recorded: enhanced | significantly enhanced | abolished | did not affect | significantly enhanced | augments | significantly enhanced
3 | did not alter | Cc1nc2ccccc2nc1CN1CCN(C2CCCCC2)C(CCO)C1 (centres unmarked) [compound 1002] | – | – | – | – | most effective NAMs; also recorded: inhibited | mitigated | attenuated | did not affect | mitigated | – | either slightly reduced or had no effect
4 | did not alter | Cc1cnn(-c2cc(N/N=C/c3ccccc3O)ncn2)c1 [compound 1003] | – | – | – | – | most effective NAMs; also recorded: inhibited | mitigated | attenuated | did not affect | mitigated | – | either slightly reduced or had no effect
